# Laboratory results taken from patent US9386769B2 (HUNAN RESEARCH INSTITUTE OF CHEMICAL INDUSTRY CO., LTD., priority 2011, dated 2016).
# Like-named read-outs stand apart in the source and are kept apart here.
# Key:
# Sclerotinia sclerotiorum = test: Fungicidal activity against Sclerotinia sclerotiorum, mycelial growth inhibition on PDA plate; assay type: cell-based
# Experimental: (§1) Bioassay method: Stock solution of every test compound was prepared in an appropriate solvent such as N,N-dimethylformamide (DMF), and then diluted to the required test concentrations with sterile water containing 0.1% Tween 80; Pipetted 3 mL of test solution to 27 mL of potato dextrose agar (PDA) medium at 45° C. and poured into a Petri dish to prepare a plate after shaking thoroughly; 6 mm of diameter of fungi cake from the edge of 7-day-old […] colony was inoculated on the central of the plate, wherein mycelium facing down, and cultured in the culture tank at 28° C. The diameter of fungi spread was calculated 4 days later using the control group tested with the diluent only. Test was run 4 times. Data were subjected to EXCEL statistical software analysis and the growth inhibition of the tested compound was calculated according to the corresponding control, the activity was rated on the basis of percentage of growth inhibition using the following rating system: A, inhibition (%)>90; B, 90≧inhibition (%)>70; C, 70≧inhibition (%)>50; D, inhibition (%)≦50.
# Botrytis cinerea = test: Fungicidal activity against Botrytis cinerea, mycelial growth inhibition on PDA plate; assay type: cell-based
# Experimental: as §1
# Fungicidal activities against Botrytis cinerea of compounds represented by the general formula (I) were evaluated with the corresponding method in Example 18, and some of the test results are shown in Table 6 to Table 8.
# Alternaria alternata = test: Fungicidal activity against Alternaria alternata, mycelial growth inhibition on PDA plate; assay type: cell-based; conditions: Alternaria alternata; 25 mg/L; read-out: activities against Alternaria alternata (growth inhibition rating)
# Experimental: as §1
# Fungicidal activities against Alternaria alternata of compounds represented by the general formula (I) were evaluated with the corresponding method in Example 18, and some of the test results are shown in Table 9 to Table 10.
# Tetranychus urticae = test: Acaricidal activity against Tetranychus urticae, dipping of horsebean seedlings; assay type: in vivo
# Experimental: Bioassay method: Stock solution of every test compound was prepared in an appropriate solvent such as N,N-dimethylformamide, and a small amount of Tween 80 was added as emulsification agent, then diluted to the required test concentrations with distilled water, using the control group tested with distilled water only. 100 to 200 adults of Tetranychus urticae were transferred to well-growing horsebean seedlings and 24 hr later, horsebean seedlings with Tetranychus urticae were dipped in the test solution for 10 s, then allowed to dry with filter paper and transplanted to the beaker containing water and kept in a room for normal cultivation. Each assay contained three replications, and results were averaged. Mortality was assessed 24 hr after the treatment. The activity was rated on the basis of mortality using the following rating system: A, mortality>90; B, 90≧mortality>70; C, 70≧mortality>50; D, mortality≦50.
# Abutilon = test: Herbicidal activity, pre-emergence pot test, Abutilon; assay type: in vivo, Abutilon theophrasti; conditions: 150 g a.i./mu, 15 to 25 days after treatment
# Source text: (§2) Bioassay method: (1) Plastic pots (about 64 cm^2) were filled with soil and placed in a stainless steel basin, seeds with the same size and plumpness of monocotyledonous weeds such as Digitaria sanguinalis, Echinochloa crus-galli, Setaria viridis and Dicotyledonous weeds such as Abutilon theophrasti or Stelleria media or Solanum nigrum, Chenopodium album, Amaranthus ascedene or Amaranthus retroflexus were sown in one-third of the pot area with the soil depth of 1 cm in two different pots separately and grown to the desired leaf stage in a greenhouse wherein water is added to the stainless steel basin until the full infiltration of soils from the bottom of pots; (2) Test compounds represented by the general formula (I) were formulated by using N,N-dimethylformamide as solvent and a small amount of Tween 80 as emulsification agent, then diluted to the required test concentrations with water, using the control group tested with corresponding solvent and water only; (3) the required test solutions were applied for pre-emergence treatment 24 hr after the weeds were sown, for postemergence treatment, monocotyledonous weeds were treated at the 1-leaf stage and dicotyledonous weeds were treated at 2 leaf stage; (4) the pre- and postemergence application rates were 150 g a.i./mu, using the control group with corresponding solvent or water respectively; (5) Treatments were kept in greenhouse for cultivation; (6) Herbicidal activities were evaluated visually 15 to 25 days after treatment, on the basis of the survey results, the weed control effect can be calculated by the following formula: efficacy (%)=(the height of the weed in the control group−the height of the weed in the test group) (the height of the weed in the control group).
# Amaranthus spinosus = test: Herbicidal activity, pre-emergence pot test, Amaranthus spinosus; assay type: in vivo; conditions: 150 g a.i./mu, 15 to 25 days after treatment
# Source text: as §2
# Chenopodium album = test: Herbicidal activity, pre-emergence pot test, Chenopodium album; assay type: in vivo; conditions: 150 g a.i./mu, 15 to 25 days after treatment
# Source text: as §2
# Digitaria sanguinalis = test: Herbicidal activity, pre-emergence pot test, Digitaria sanguinalis; assay type: in vivo; conditions: 150 g a.i./mu, 15 to 25 days after treatment
# Source text: as §2
# Echinochloa crus-galli = test: Herbicidal activity, pre-emergence pot test, Echinochloa crus-galli; assay type: in vivo; conditions: 150 g a.i./mu, 15 to 25 days after treatment
# Source text: as §2
# Setaria viridis = test: Herbicidal activity, pre-emergence pot test, Setaria viridis; assay type: in vivo; conditions: 150 g a.i./mu, 15 to 25 days after treatment
# Source text: as §2
# Cercospora arachidicola = test: Fungicidal activity against Cercospora arachidicola; assay type: cell-based; conditions: 25 mg/L
# Experimental: as §1
# Alternaria mali = test: Fungicidal activity against Alternaria mali; assay type: cell-based; conditions: 25 mg/L
# Experimental: as §1
# Sphaceloma ampelinum = test: Fungicidal activity against Sphaceloma ampelinum; assay type: cell-based; conditions: 25 mg/L
# Experimental: as §1
# Marssonina coronaria = test: Fungicidal activity against Marssonina coronaria; assay type: cell-based; conditions: 25 mg/L
# Experimental: as §1
# Fusarium oxysporum = test: Fungicidal activity against Fusarium oxysporum; assay type: cell-based; conditions: 25 mg/L
# Experimental: as §1
# Alternaria solani = test: Fungicidal activity against Alternaria solani; assay type: cell-based; conditions: 25 mg/L
# Experimental: as §1
structure (smiles),measurement,setting,value
"C#CCOc1ccc([N+](=O)[O-])c(N(CC)Cc2cnc(Cl)s2)n1 [Compound 25, 6-propargyloxy-N-((2-chlorothiazole-5-yl)methyl)-N-ethyl-3-nitropyridine-2-amine]",inhibition at 1.25 µg/mL,"Sclerotinia sclerotiorum; Sclerotinia sclerotiorum, 1.25 mg/L, Table 4, read-out: activities against Sclerotinia sclerotiorum (growth inhibition)",78%
same,inhibition at 2.5 µg/mL,"Sclerotinia sclerotiorum; Sclerotinia sclerotiorum, 2.5 mg/L, Table 4, read-out: activities against Sclerotinia sclerotiorum (growth inhibition)",84%
same,inhibition at 5 µg/mL,"Sclerotinia sclerotiorum; Sclerotinia sclerotiorum, 5 mg/L, Table 4, read-out: activities against Sclerotinia sclerotiorum (growth inhibition)",90%
same,inhibition at 10 µg/mL,"Sclerotinia sclerotiorum; Sclerotinia sclerotiorum, 10 mg/L, Table 4, read-out: activities against Sclerotinia sclerotiorum (growth inhibition)",96%
same,inhibition at 25 µg/mL,"Sclerotinia sclerotiorum; Sclerotinia sclerotiorum, 25 mg/L, read-out: activities against Sclerotinia sclerotiorum (growth inhibition rating)",> 90%
same,inhibition at 1.25 µg/mL,"Botrytis cinerea; Botrytis cinerea, 1.25 mg/L, Table 7, read-out: activities against Botrytis cinerea (growth inhibition)",85%
same,inhibition at 2.5 µg/mL,"Botrytis cinerea; Botrytis cinerea, 2.5 mg/L, Table 7, read-out: activities against Botrytis cinerea (growth inhibition)",90%
same,inhibition at 5 µg/mL,"Botrytis cinerea; Botrytis cinerea, 5 mg/L, Table 7, read-out: activities against Botrytis cinerea (growth inhibition)",93%
same,inhibition at 10 µg/mL,"Botrytis cinerea; Botrytis cinerea, 10 mg/L, Table 7, read-out: activities against Botrytis cinerea (growth inhibition)",97%
same,inhibition at 25 µg/mL,"Botrytis cinerea; Botrytis cinerea, 25 mg/L, read-out: activities against Botrytis cinerea (growth inhibition rating)",> 90%
same,inhibition at 25 µg/mL,Alternaria alternata,70 to 90%
same,mortality at 500 µg/mL,"Tetranychus urticae; Tetranychus urticae, 24 h, read-out: activities against Tetranychus urticae (mortality rating)",50 to 70%
CN(C)c1ccc([N+](=O)[O-])c(N(C)Cc2cnc(Cl)s2)n1 [Compound 23],activities against Botrytis cinerea (growth inhibition rating),Botrytis cinerea; 25 mg/L,"B (B, 90≧inhibition (%)>70)"
same,"herbicidal activity (efficacy), Abutilon",Abutilon,70%
same,"herbicidal activity (efficacy), Amaranthus spinosus",Amaranthus spinosus,80%
same,"herbicidal activity (efficacy), Chenopodium album",Chenopodium album,80%
same,"herbicidal activity (efficacy), Digitaria sanguinalis",Digitaria sanguinalis,0%
same,"herbicidal activity (efficacy), Echinochloa crus-galli",Echinochloa crus-galli,0%
same,"herbicidal activity (efficacy), Setaria viridis",Setaria viridis,0%
CNc1ccc([N+](=O)[O-])c(N(C)Cc2cnc(Cl)s2)n1 [Compound 20],"herbicidal activity (efficacy), Abutilon",Abutilon,70%
same,"herbicidal activity (efficacy), Amaranthus spinosus",Amaranthus spinosus,90%
same,"herbicidal activity (efficacy), Chenopodium album",Chenopodium album,90%
same,"herbicidal activity (efficacy), Digitaria sanguinalis",Digitaria sanguinalis,70%
same,"herbicidal activity (efficacy), Echinochloa crus-galli",Echinochloa crus-galli,70%
same,"herbicidal activity (efficacy), Setaria viridis",Setaria viridis,70%
"CC12CC1(C)C(=O)N(c1cc(Cl)cc(Cl)c1)C2=O (stereo not shown) [Procymidone, reference compound]",inhibition at 0.1562 µg/mL,"Sclerotinia sclerotiorum; Sclerotinia sclerotiorum, 0.1562 mg/L, Table 5, read-out: activities against Sclerotinia sclerotiorum (growth inhibition)",34%
same,inhibition at 0.3125 µg/mL,"Sclerotinia sclerotiorum; Sclerotinia sclerotiorum, 0.3125 mg/L, Table 5, read-out: activities against Sclerotinia sclerotiorum (growth inhibition)",63%
same,inhibition at 0.625 µg/mL,"Sclerotinia sclerotiorum; Sclerotinia sclerotiorum, 0.625 mg/L, Table 5, read-out: activities against Sclerotinia sclerotiorum (growth inhibition)",66%
same,inhibition at 1.255 µg/mL,"Sclerotinia sclerotiorum; Sclerotinia sclerotiorum, 1.255 mg/L, Table 5, read-out: activities against Sclerotinia sclerotiorum (growth inhibition)",76%
same,inhibition at 2.5 µg/mL,"Sclerotinia sclerotiorum; Sclerotinia sclerotiorum, 2.5 mg/L, Table 5, read-out: activities against Sclerotinia sclerotiorum (growth inhibition)",79%
same,inhibition at 5 µg/mL,"Sclerotinia sclerotiorum; Sclerotinia sclerotiorum, 5 mg/L, Table 5, read-out: activities against Sclerotinia sclerotiorum (growth inhibition)",93%
same,inhibition at 0.1562 µg/mL,"Botrytis cinerea; Botrytis cinerea, 0.1562 mg/L, Table 8, read-out: activities against Botrytis cinerea (growth inhibition)",46%
same,inhibition at 0.3125 µg/mL,"Botrytis cinerea; Botrytis cinerea, 0.3125 mg/L, Table 8, read-out: activities against Botrytis cinerea (growth inhibition)",67%
same,inhibition at 0.625 µg/mL,"Botrytis cinerea; Botrytis cinerea, 0.625 mg/L, Table 8, read-out: activities against Botrytis cinerea (growth inhibition)",75%
same,inhibition at 1.255 µg/mL,"Botrytis cinerea; Botrytis cinerea, 1.255 mg/L, Table 8, read-out: activities against Botrytis cinerea (growth inhibition)",83%
same,inhibition at 2.5 µg/mL,"Botrytis cinerea; Botrytis cinerea, 2.5 mg/L, Table 8, read-out: activities against Botrytis cinerea (growth inhibition)",93%
same,inhibition at 5 µg/mL,"Botrytis cinerea; Botrytis cinerea, 5 mg/L, Table 8, read-out: activities against Botrytis cinerea (growth inhibition)",100%
same,activity against Cercospora arachidicola,Cercospora arachidicola,85%
same,activity against Alternaria mali,Alternaria mali,82%
same,activity against Sphaceloma ampelinum,Sphaceloma ampelinum,96%
same,activity against Marssonina coronaria,Marssonina coronaria,75%
same,activity against Fusarium oxysporum,Fusarium oxysporum,38%
same,activity against Alternaria solani,Alternaria solani,94%
"C=CCOc1ccc([N+](=O)[O-])c(N(CC)Cc2cnc(Cl)s2)n1 [Compound 29, 6-allyloxy-N-((2-chlorothiazole-5-yl)methyl)-N-ethyl-nitropyridine-2-amine]",activities against Sclerotinia sclerotiorum (growth inhibition),"Sclerotinia sclerotiorum; 1.25 mg/L, Table 4",63%
same,activities against Sclerotinia sclerotiorum (growth inhibition),"Sclerotinia sclerotiorum; 2.5 mg/L, Table 4",72%
same,activities against Sclerotinia sclerotiorum (growth inhibition),"Sclerotinia sclerotiorum; 5 mg/L, Table 4",79%
same,activities against Sclerotinia sclerotiorum (growth inhibition),"Sclerotinia sclerotiorum; 10 mg/L, Table 4",83%
same,activities against Sclerotinia sclerotiorum (growth inhibition rating),Sclerotinia sclerotiorum; 25 mg/L,"A (A, inhibition (%)>90)"
same,activities against Botrytis cinerea (growth inhibition),"Botrytis cinerea; 1.25 mg/L, Table 7",62%
same,activities against Botrytis cinerea (growth inhibition),"Botrytis cinerea; 2.5 mg/L, Table 7",67%
same,activities against Botrytis cinerea (growth inhibition),"Botrytis cinerea; 5 mg/L, Table 7",73%
same,activities against Botrytis cinerea (growth inhibition),"Botrytis cinerea; 10 mg/L, Table 7",80%
same,activities against Botrytis cinerea (growth inhibition rating),Botrytis cinerea; 25 mg/L,"A (A, inhibition (%)>90)"
same,activities against Tetranychus urticae (mortality rating),"Tetranychus urticae; 500 mg/L, mortality 24 hr after the treatment","C (C, 70≧mortality>50)"
CCN(Cc1cnc(Cl)s1)c1nc(SC)ccc1[N+](=O)[O-] [Compound 18],activities against Botrytis cinerea (growth inhibition rating),Botrytis cinerea; 25 mg/L,"B (B, 90≧inhibition (%)>70)"
same,"herbicidal activity (efficacy), Abutilon",Abutilon,0%
same,"herbicidal activity (efficacy), Amaranthus spinosus",Amaranthus spinosus,0%
same,"herbicidal activity (efficacy), Chenopodium album",Chenopodium album,0%
same,"herbicidal activity (efficacy), Digitaria sanguinalis",Digitaria sanguinalis,90%
same,"herbicidal activity (efficacy), Echinochloa crus-galli",Echinochloa crus-galli,80%
same,"herbicidal activity (efficacy), Setaria viridis",Setaria viridis,80%
